Source: patent US11524968B2, “Heterocyclic compound as a protein kinase inhibitor” (HK inno.N Corporation, priority 2017, dated 2022)

Biological target: JAK1 (Homo sapiens (Human), UniProt P23458)
Assay: Analysis of JAK1 activity inhibition ability (ADP-Glo Kinase Assay)
Type: biochemical
Conditions: JAK1 enzyme, ADP-Glo luminescence, ATP 250 uM, IRS-itide substrate, 30° C. 40 minutes; read-out: IC50
Method in brief: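 JAK1 enzyme, IRS-itide substrate (40 ng/mL) and 250 uM ATP, both as prepared in kinase buffer (Tris-HCl pH 7.5, MgCl2, BSA, DTT), reacted with compound 40 min at 30 °C. ADP formed was detected by ADP-Glo luminescence; IC50 is the concentration giving 50% inhibition versus control.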

JAK1, sequence (P23458 whole entry): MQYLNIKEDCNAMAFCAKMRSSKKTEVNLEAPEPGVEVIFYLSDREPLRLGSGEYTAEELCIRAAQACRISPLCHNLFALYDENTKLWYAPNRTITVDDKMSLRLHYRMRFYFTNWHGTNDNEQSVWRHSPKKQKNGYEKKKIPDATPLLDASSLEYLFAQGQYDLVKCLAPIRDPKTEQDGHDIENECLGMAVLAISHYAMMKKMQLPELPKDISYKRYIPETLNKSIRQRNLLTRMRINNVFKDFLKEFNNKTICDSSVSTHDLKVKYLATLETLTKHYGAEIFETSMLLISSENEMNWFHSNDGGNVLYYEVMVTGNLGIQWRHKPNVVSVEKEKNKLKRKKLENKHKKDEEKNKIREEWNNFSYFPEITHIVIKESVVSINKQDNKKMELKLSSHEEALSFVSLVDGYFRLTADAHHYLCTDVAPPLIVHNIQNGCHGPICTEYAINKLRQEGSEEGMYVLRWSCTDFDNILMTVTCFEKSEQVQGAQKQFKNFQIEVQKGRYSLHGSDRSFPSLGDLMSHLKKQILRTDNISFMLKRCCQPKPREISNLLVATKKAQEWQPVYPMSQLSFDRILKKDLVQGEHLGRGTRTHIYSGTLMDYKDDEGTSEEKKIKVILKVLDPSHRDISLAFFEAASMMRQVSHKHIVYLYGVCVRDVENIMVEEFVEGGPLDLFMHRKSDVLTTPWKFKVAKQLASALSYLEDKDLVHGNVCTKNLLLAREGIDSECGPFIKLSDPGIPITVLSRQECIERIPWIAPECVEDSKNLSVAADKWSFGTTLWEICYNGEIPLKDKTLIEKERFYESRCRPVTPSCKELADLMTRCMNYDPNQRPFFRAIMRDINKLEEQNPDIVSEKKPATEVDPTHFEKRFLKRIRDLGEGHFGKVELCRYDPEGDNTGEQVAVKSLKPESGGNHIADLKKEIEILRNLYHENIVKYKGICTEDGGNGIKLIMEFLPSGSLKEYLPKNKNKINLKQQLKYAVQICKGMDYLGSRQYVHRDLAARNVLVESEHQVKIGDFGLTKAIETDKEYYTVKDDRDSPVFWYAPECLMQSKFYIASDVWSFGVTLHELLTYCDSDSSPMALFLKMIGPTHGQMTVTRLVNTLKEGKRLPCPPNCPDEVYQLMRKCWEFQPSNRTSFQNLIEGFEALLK

SMILES	IC50 [nM]
CC1CN(C(=O)c2ccc(F)cc2Cl)CC=C1c1cc(NC(=O)C2CC2)nc2[nH]ccc12 (stereo not drawn) [Example 355, N-(4-(1-(2-chloro-4-fluorobenzoyl)-3-methyl-1,2,3,6-tetrahydropyridin-4-yl)-1H-pyrrolo[2,3-b]pyridin-6-yl)cyclopropanecarboxamide]	20 to 200
COc1ccc(C(=O)N2CC=C(c3cc(NC(=O)C4CC4)nc4[nH]ccc34)C(C)C2)c(OC)c1 (stereo not drawn) [Example 356, N-(4-(1-(2,4-dimethoxybenzoyl)-3-methyl-1,2,3,6-tetrahydropyridin-4-yl)-1H-pyrrolo[2,3-b]pyridin-6-yl)cyclopropanecarboxamide]	> 200
CSc1ccccc1C(=O)N1CC=C(c2cc(NC(=O)C3CC3)nc3[nH]ccc23)C(C)C1 (stereo not drawn) [Example 357, N-(4-(3-methyl-1-(2-(methylthio)benzoyl)-1,2,3,6-tetrahydropyridin-4-yl)-1H-pyrrolo[2,3-b]pyridin-6-yl)cyclopropanecarboxamide]	20 to 200
CC1CN(C(=O)c2cc(F)cc(F)c2)CC=C1c1cc(NC(=O)C2CC2)nc2[nH]ccc12 (stereo not drawn) [Example 358, N-(4-(1-(3,5-difluorobenzoyl)-3-methyl-1,2,3,6-tetrahydropyridin-4-yl)-1H-pyrrolo[2,3-b]pyridin-6-yl)cyclopropanecarboxamide]	20 to 200
CC1CN(C(=O)C(C#N)Cc2ccc(F)cc2)CC=C1c1cc(NC(=O)C2CC2)nc2[nH]ccc12 (stereo not drawn) [Example 359, N-(4-(1-(2-cyano-3-(4-fluorophenyl)propanoyl)-3-methyl-1,2,3,6-tetrahydropyridin-4-yl)-1H-pyrrolo[2,3-b]pyridin-6-yl)cyclopropanecarboxamide]	20 to 200
CC1CN(C(=O)C(C#N)Cc2ccccc2)CC=C1c1cc(NC(=O)C2CC2)nc2[nH]ccc12 (stereo not drawn) [Example 360, N-(4-(1-(2-cyano-3-phenylpropanoyl)-3-methyl-1,2,3,6-tetrahydropyridin-4-yl)-1H-pyrrolo[2,3-b]pyridin-6-yl)cyclopropanecarboxamide]	20 to 200
CC1CN(C(=O)C2(C#N)CCCC2)CC=C1c1cc(NC(=O)C2CC2)nc2[nH]ccc12 (stereo not drawn) [Example 361, N-(4-(1-(1-cyanocyclopentane-1-carbonyl)-3-methyl-1,2,3,6-tetrahydropyridin-4-yl)-1H-pyrrolo[2,3-b]pyridin-6-yl)cyclopropanecarboxamide]	20 to 200
CC1CN(C(=O)CC(=O)N2CCOCC2)CC=C1c1cc(NC(=O)C2CC2)nc2[nH]ccc12 (stereo not drawn) [Example 362, N-(4-(3-methyl-1-(3-morpholino-3-oxopropanoyl)-1,2,3,6-tetrahydropyridin-4-yl)-1H-pyrrolo[2,3-b]pyridin-6-yl)cyclopropanecarboxamide]	20 to 200
CC1CN(C(=O)Cc2ccccc2)CC=C1c1cc(NC(=O)C2CC2)nc2[nH]ccc12 (stereo not drawn) [Example 365, N-(4-(3-methyl-1-(2-phenylacetyl)-1,2,3,6-tetrahydropyridin-4-yl)-1H-pyrrolo[2,3-b]pyridin-6-yl)cyclopropanecarboxamide]	20 to 200
O=C(Nc1cc(C2=CC3CCCC(C2)N3C(=O)c2ccnc(F)c2)c2cc[nH]c2n1)C1CC1 (stereo not drawn) [Example 366, N-(4-(9-(2-fluoroisonicotinoyl)-9-azabicyclo[3.3.1]non-2-en-3-yl)-1H-pyrrolo[2,3-b]pyridin-6-yl)cyclopropanecarboxamide]	< 20
O=C(Nc1cc(C2=CC3CCCC(C2)N3C(=O)c2ccnc(Cl)c2)c2cc[nH]c2n1)C1CC1 (stereo not drawn) [Example 367, N-(4-(9-(2-chloroisonicotinoyl)-9-azabicyclo[3.3.1]non-2-en-3-yl)-1H-pyrrolo[2,3-b]pyridin-6-yl)cyclopropanecarboxamide]	20 to 200
O=C(Nc1cc(C2=CC3CCCC(C2)N3C(=O)c2ccc(Cl)nc2)c2cc[nH]c2n1)C1CC1 (stereo not drawn) [Example 368, N-(4-(9-(6-chloronicotinoyl)-9-azabicyclo[3.3.1]non-2-en-3-yl)-1H-pyrrolo[2,3-b]pyridin-6-yl)cyclopropanecarboxamide]	< 20
O=C(Nc1cc(C2=CC3CCCC(C2)N3C(=O)c2ccncc2F)c2cc[nH]c2n1)C1CC1 (stereo not drawn) [Example 369, N-(4-(9-(3-fluoroisonicotinoyl)-9-azabicyclo[3.3.1]non-2-en-3-yl)-1H-pyrrolo[2,3-b]pyridin-6-yl)cyclopropanecarboxamide]	20 to 200
O=C(Nc1cc(C2=CC3CCCC(C2)N3C(=O)c2ccc([N+](=O)[O-])cc2)c2cc[nH]c2n1)C1CC1 (stereo not drawn) [Example 370, N-(4-(9-(4-nitrobenzoyl)-9-azabicyclo[3.3.1]non-2-en-3-yl)-1H-pyrrolo[2,3-b]pyridin-6-yl)cyclopropanecarboxamide]	20 to 200
O=C(Nc1cc(C2=CC3CCCC(C2)N3C(=O)c2cccc(Br)c2)c2cc[nH]c2n1)C1CC1 (stereo not drawn) [Example 371, N-(4-(9-(3-bromobenzoyl)-9-azabicyclo[3.3.1]non-2-en-3-yl)-1H-pyrrolo[2,3-b]pyridin-6-yl)cyclopropanecarboxamide]	20 to 200
CC1CN(C(=O)c2cc(Cl)nc(Cl)c2)CC=C1c1cc(NC(=O)C2CC2)nc2[nH]ccc12 (stereo not drawn) [Example 372, N-(4-(1-(2,6-dichloroisonicotinoyl)-3-methyl-1,2,3,6-tetrahydropyridin-4-yl)-1H-pyrrolo[2,3-b]pyridin-6-yl)cyclopropanecarboxamide]	20 to 200
CC1CN(C(=O)c2c(Cl)cncc2Cl)CC=C1c1cc(NC(=O)C2CC2)nc2[nH]ccc12 (stereo not drawn) [Example 374, N-(4-(1-(3,5-dichloroisonicotinoyl)-3-methyl-1,2,3,6-tetrahydropyridin-4-yl)-1H-pyrrolo[2,3-b]pyridin-6-yl)cyclopropanecarboxamide]	20 to 200
Cc1cc(C(=O)N2CC=C(c3cc(NC(=O)C4CC4)nc4[nH]ccc34)C(C)C2)cc(Cl)n1 (stereo not drawn) [Example 375, N-(4-(1-(2-chloro-6-methylisonicotinoyl)-3-methyl-1,2,3,6-tetrahydropyridin-4-yl)-1H-pyrrolo[2,3-b]pyridin-6-yl)cyclopropanecarboxamide]	20 to 200
CC1CN(C(=O)c2ccncc2Cl)CC=C1c1cc(NC(=O)C2CC2)nc2[nH]ccc12 (stereo not drawn) [Example 376, N-(4-(1-(3-chloroisonicotinoyl)-3-methyl-1,2,3,6-tetrahydropyridin-4-yl)-1H-pyrrolo[2,3-b]pyridin-6-yl)cyclopropanecarboxamide]	20 to 200
CC1CN(C(=O)c2ccncc2O)CC=C1c1cc(NC(=O)C2CC2)nc2[nH]ccc12 (stereo not drawn) [Example 377, N-(4-(1-(3-hydroxyisonicotinoyl)-3-methyl-1,2,3,6-tetrahydropyridin-4-yl)-1H-pyrrolo[2,3-b]pyridin-6-yl)cyclopropanecarboxamide]	> 200

Other lines, results leading:

IC50 [nM]	SMILES
20 to 200	CC1CN(C(=O)Cc2cccc(F)c2)CC=C1c1cc(NC(=O)C2CC2)nc2[nH]ccc12 (stereo not drawn) [Example 346, N-(4-(1-(2-(3-fluorophenyl)acetyl)-3-methyl-1,2,3,6-tetrahydropyridin-4-yl)-1H-pyrrolo[2,3-b]pyridin-6-yl)cyclopropanecarboxamide]
20 to 200	CC1CN(C(=O)Cc2cccc(Br)c2)CC=C1c1cc(NC(=O)C2CC2)nc2[nH]ccc12 (stereo not drawn) [Example 347, N-(4-(1-(2-(3-bromophenyl)acetyl)-3-methyl-1,2,3,6-tetrahydropyridin-4-yl)-1H-pyrrolo[2,3-b]pyridin-6-yl)cyclopropanecarboxamide]
20 to 200	CC1CN(C(=O)CCl)CC=C1c1cc(NC(=O)C2CC2)nc2[nH]ccc12 (stereo not drawn) [Example 348, N-(4-(1-(2-chloroacetyl)-3-methyl-1,2,3,6-tetrahydropyridin-4-yl)-1H-pyrrolo[2,3-b]pyridin-6-yl)cyclopropanecarboxamide]
20 to 200	CC1CN(C(=O)c2cccnc2Cl)CC=C1c1cc(NC(=O)C2CC2)nc2[nH]ccc12 (stereo not drawn) [Example 349, N-(4-(1-(2-chloronicotinoyl)-3-methyl-1,2,3,6-tetrahydropyridin-4-yl)-1H-pyrrolo[2,3-b]pyridin-6-yl)cyclopropanecarboxamide]
20 to 200	CC1CN(C(=O)c2ccc(O)cc2)CC=C1c1cc(NC(=O)C2CC2)nc2[nH]ccc12 (stereo not drawn) [Example 350, N-(4-(1-(4-hydroxybenzoyl)-3-methyl-1,2,3,6-tetrahydropyridin-4-yl)-1H-pyrrolo[2,3-b]pyridin-6-yl)cyclopropanecarboxamide]
20 to 200	CC1CN(C(=O)c2cc3ccccc3o2)CC=C1c1cc(NC(=O)C2CC2)nc2[nH]ccc12 (stereo not drawn) [Example 352, N-(4-(1-(benzofuran-2-carbonyl)-3-methyl-1,2,3,6-tetrahydropyridin-4-yl)-1H-pyrrolo[2,3-b]pyridin-6-yl)cyclopropanecarboxamide]
20 to 200	CC1CN(C(=O)c2ccc(Cl)c(Cl)c2)CC=C1c1cc(NC(=O)C2CC2)nc2[nH]ccc12 (stereo not drawn) [Example 353, N-(4-(1-(3,4-dichlorobenzoyl)-3-methyl-1,2,3,6-tetrahydropyridin-4-yl)-1H-pyrrolo[2,3-b]pyridin-6-yl)cyclopropanecarboxamide]
20 to 200	CC1CN(C(=O)c2ccc(S(C)(=O)=O)cc2)CC=C1c1cc(NC(=O)C2CC2)nc2[nH]ccc12 (stereo not drawn) [Example 354, N-(4-(3-methyl-1-(4-(methylsulfonyl)benzoyl)-1,2,3,6-tetrahydropyridin-4-yl)-1H-pyrrolo[2,3-b]pyridin-6-yl)cyclopropanecarboxamide]
< 20	CC1CC(c2cc(NC(=O)C3CC3)nc3[nH]ccc23)=CCN1C(=O)CC#N (stereo not drawn) [Example 363, N-(4-(1-(2-cyanoacetyl)-2-methyl-1,2,3,6-tetrahydropyridin-4-yl)-1H-pyrrolo[2,3-b]pyridin-6-yl)cyclopropanecarboxamide]
< 20	CC1CN(C(=O)c2cccc(F)c2F)CC=C1c1cc(NC(=O)C2CC2)nc2[nH]ccc12 (stereo not drawn) [Example 378, N-(4-(1-(2,3-difluorobenzoyl)-3-methyl-1,2,3,6-tetrahydropyridin-4-yl)-1H-pyrrolo[2,3-b]pyridin-6-yl)cyclopropanecarboxamide]
